{
  "source": "patent US20140213475A1",
  "about": "“METHODS OF DIAGNOSING CANCER USING EPIGENETIC BIOMARKERS” (University of Massachusetts, priority 2011, published 2014)",
  "key": {"[1]": {"tested_on": "normal human fibroblasts (Tig-1)", "assay": "BMI-1/Ring1B (PRC1) CAP body formation in normal fibroblasts after treatment with DNA demethylating agent, immunofluorescence and 1q12 DNA FISH", "assay_type": "cell-based", "details": "for number of CAP positive cells: 0.2 ug/ml added fresh daily", "description": "(§1) FIGS. 6A-6E. […] FIG. 6C is a photomicrograph showing that longer treatment (8 days total) results in aberrant expression of Sat II RNA from other loci that are not associated with BMI-1 bodies.\n(§2) Importantly, aberrant Sat II RNA foci also appeared with longer term 5-aza-2d treatment, and importantly from sites distinct from 1q12 bearing the accumulated BMI-1 bodies (FIG. 6C). Aberrant Sat II expression was not seen in control or 1 day treated cells, was rare on day 3 and in ˜5-10% of cells by day 8. These findings reveal significant mechanistic insight into why PcG proteins so markedly accumulate at 1q12 in cancer but not normal cells, and provide important evidence of a link between two intensely studied areas of cancer epigenetics, DNA methylation and polycomb proteins.\n(§3) Twenty two cell lines were examined in this study (list in Supplement), and grown in conditions recommended by suppliers (ATCC, Cambrex, and Coriell). 5-azacytidine (6 mM) and 5-aza-2′deoxycytidine (0.2 ug/ml) was added fresh daily to asynchronously growing cultures and refreshed every day. Our standard fixation protocols have been detailed previously (Johnson et al., 1991; Tam et al., 2002), and summarized in the Supplement. Human effusions were fixed as for cultured cells and tissue blocks were cryosectioned onto cold glass slides (HistoBond+), and stored at −80 briefly until fixation. Of four fixations tested (Supplement) the one that gave best results was brief triton extraction followed by paraformaldehyde fixation and storage in ETOH.\nSimultaneous DNA/RNA and antibody detection: Most antibodies were used prior to RNA or DNA hybridization. Briefly, slides were incubated in the appropriate dilution of primary antibody in 1% BSA, 1xPBS and 1 U/ul RNasin, for 1 hour at 37 C. Slides were washed, and immunodetection was performed using 1:500 dilution of appropriately conjugated (Alexa 488 or Alexa 594, Invitrogen) secondary (anti-goat, mouse or rabbit) antibody, in 1×PBS with 1% BSA. The antibody signal is fixed in 4% paraformaldehyde for 10 min prior to hybridization (performed as detailed above), and all slides were counter stained with DAPI. Vectashield (Vector Labs) was used as mounting media for all fluorescence imaging."}, "[2]": {"tested_on": "normal human fibroblasts (Tig-1)", "assay": "Aberrant Sat II RNA foci in normal fibroblasts after treatment with DNA demethylating agent, RNA FISH", "assay_type": "cell-based", "description": "as §1, §2, §3\nSat2-24 nt LNA was used for most images unless otherwise indicated. Several methods of Sat 2 probe labeling and detection were tested (see below). RNA-specific hybridization was carried out under non-denaturing conditions where the DNA was not accessible. Oligos were usually hybridized at 15% formamide conditions, but were also compared to higher stringency hybridizations at 40% and 50% formamide. […]"}, "[3]": {"tested_on": "Sat II on Chromosome 1", "details": "Ji et al., 1997; cited from earlier work"}},
  "data": [
    {"molecule": "Nc1ncn([C@H]2C[C@H](O)[C@@H](CO)O2)c(=O)n1", "note": "[5-aza-2d, 5-aza-2′-deoxycytidine]", "values": [
      {"measurement": "number of CAP bodies per cell", "setting": "[1]; Day 1 of treatment", "value": "~2"},
      {"measurement": "number of CAP positive cells", "setting": "[1]; Day 1 of treatment", "value": 15, "unit": "%"},
      {"measurement": "number of CAP positive cells", "setting": "[1]; Day 3 of treatment", "value": 52, "unit": "%"},
      {"measurement": "number of CAP bodies per cell", "setting": "[1]; Day 8 of treatment", "value": "~4"},
      {"measurement": "number of CAP positive cells", "setting": "[1]; Day 8 of treatment", "value": 80, "unit": "%"},
      {"measurement": "aberrant Sat II expression (Sat II RNA foci)", "setting": "[2]; 1 day treated cells", "value": "not seen"},
      {"measurement": "aberrant Sat II expression (Sat II RNA foci)", "setting": "[2]; day 3 of treatment", "value": "rare"},
      {"measurement": "aberrant Sat II expression (Sat II RNA foci), cells positive", "setting": "[2]; day 8 of treatment", "value": "5-10 % of cells"},
      {"measurement": "demethylation of Sat II on Chromosome 1", "setting": "[3]", "value": "effectively demethylate Sat II on Chromosome 1"}
    ]}
  ]
}
